Assay results reported in patent US20170260226A1, “3-NITROGEN OR SULPHUR SUBSTITUTED OESTRA-1,3,5(10),16-TETRAENE AKR1C3 INHIBITORS” (BAYER PHARMA AKTIENGESELLSCHAFT, priority 2014, published 2017).

What was measured:
AKR1C3 [1] = target: T1, AKR1C3 (Homo sapiens, UniProt P42330); assay: AKR1C3 enzyme inhibition assay (coumberone to coumberol fluorescence); format: biochemical; parameters: GST (cleaved yes); made in house; host or cells: E. coli; conditions: mean values; 10 μM NADPH, 0.3 μM coumberone, 3 h at room temperature
T1 sequence (P42330 1-323): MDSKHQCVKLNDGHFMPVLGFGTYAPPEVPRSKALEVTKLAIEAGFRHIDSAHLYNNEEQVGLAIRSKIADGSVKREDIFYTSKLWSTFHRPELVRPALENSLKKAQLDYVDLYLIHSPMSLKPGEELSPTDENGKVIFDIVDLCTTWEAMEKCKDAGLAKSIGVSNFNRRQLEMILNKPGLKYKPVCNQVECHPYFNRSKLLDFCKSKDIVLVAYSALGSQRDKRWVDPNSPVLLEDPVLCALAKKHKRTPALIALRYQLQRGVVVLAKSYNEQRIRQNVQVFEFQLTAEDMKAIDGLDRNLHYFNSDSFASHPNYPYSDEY
Method: The AKR1C3-inhibitory action of the substances of this invention was measured in the AKR1C3 assay described in the paragraphs which follow.
Essentially, the enzyme activity is measured by quantifying the coumberol formed from coumberone (Halim, M., Yee, D., J., and Sames, D., J. A., M. (2008). Chem Soc 130, 14123-14128 and Yee, D., J., Balsanek, V., Bauman, D., R., Penning, T., M., and Sames, D. (2006). Proc Natl Acad Sci USA, 103, 13304-13309). In this assay, the increase in the highly fluorescent coumberol can be determined by NADPH (nicotinamide adenine dinucleotide phosphate)-dependent reduction of the nonfluorescent coumberone by AKR1C3.
The enzyme used was recombinant human AKR1C3 (aldo-keto reductase family 1 member C3) (GenBank Accession No. NM_003739). This was expressed as the GST (glutathione S-transferase) fusion protein in E. coli and purified by means of glutathione-Sepharose affinity chromatography. The GST was removed by thrombin digestion with subsequent size exclusion chromatography (Dufort, I., Rheault, P., Huang, X., F., Soucy, P., and Luu-The, V. (1999). Endocrinology,140, 568-574).
For the assay, 40-50 nl of a 100-fold concentrated solution of the test substance in DMSO were pipetted into a black low-volume 384-well microtitre plate (Greiner Bio-One, Frickenhausen, Germany), 2-2.5 μl of a solution of AKR1C3 in assay buffer [50 mM potassium phosphate buffer pH 7, 1 mM DTT, 0.0022% (w/v) Pluronic F-127, 0.01% BSA (w/v) and protease inhibitor cocktail (complete, EDTA-free Protease Inhibitor Cocktail from Roche)] were added and the mixture was incubated for 20 min, in order to enable preliminary binding of the substances to the enzyme prior to the enzyme reaction. Then the enzyme reaction was started by adding 2-2.5 μl of a solution of NADPH and coumberone in assay buffer (final assay concentration was 10 μM NADPH and 0.3 μM coumberone) and the resulting mixture was incubated at room temperature for 3 h. Typical concentrations were depending on the linear range of the enzyme reaction during the reaction time about 1 nM. The reaction was stopped by adding 2 μl of a stop solution consisting of the AKR1C3 inhibitor EM-1404 to a final concentration of 1 μM. Subsequently, the fluorescence of coumberol was measured at 520 nm (excitation at 380 nm) with a suitable measuring instrument (Pherastar, BMG). […] The data were normalized (enzyme+coumberon substrate in assay buffer=0% inhibition; coumberone substrate only in assay buffer=100% inhibition). Substances were usually tested at 11 different concentrations on the same microtiter plate in a range between 96.8 pM to 20 μM (20 μM, 5.9 μM, 1.7 μM, 0.5 μM, 0.15 μM, 44 nM, 12.9 nM, 3.8 nM, 1.1 nM, 0.3 nM and 96.8 pM). The dilutions were carried out on a 100 fold concentrated solution by serial dilution in duplicates. From the obtained data IC50 values were calculated by a 4-parameter fit.

AKR1C3 [2] = target: T1, AKR1C3; assay: AKR1C3 inhibition in a cell-based system (HEK293 cells transfected with AKR1C3 expression plasmid, coumberon substrate); parameters: expressed in transfected cells; host or cells: HEK293 cells (ATCC); conditions: mean values; HEK293 cells transfected with AKR1C3, coumberon 6×10^−6M, 3 h; read-out: Cellular AKR1C3 inhibition IC50
Method: The inhibition of AKR1C3 by the substances described in this invention was measured in a cell-based assay using coumberon as the substrate for AKR1C3 (Halim, M., Yee, D., J., and Sames, D., J. (2008). Am Chem Soc, 130, 14123-14128 and Yee, D., J., Balsanek, V., Bauman, D., R., Penning, T., M., and Sames, D. (2006), Proc Natl Acad Sci USA 103, 13304-13309) (cf. Example 48).
The cell system used was HEK293 cells (ATCC, USA) (DMEM/F12, 10% FCS, 2 mM L-Glutamine, PSG). The cells were transfected with an AKR1C3 expression plasmid (pCMV6-AC-AKR1C3, GenBank Accession No. NM 003739.4), harvested after 24 hours and subsequently frozen. For assays, the frozen cells were thawed in assay medium (DMEM/F12 w/o phenolred, 0.005% Tween, 10% FCS, 2 mM L-Glutamine, PSG). Cells were seeded at 2500 cells/well into 384-well low volume or 1536-well plates (Greiner Bio-One, Frickenhausen, Germany) that contained 40-50 nl of a 100 fold concentrated compound solution in DMSO. After incubation at room temperature for 15 minutes, coumberon in PBS was added to a final concentration of 6×10^−6M. Following a 3 h incubation at room temperature, the reaction was stopped by lysing the cells with 0.4% Triton X-100. Coumberol fluorescence intensity was measured at 520 nm (excitation 380 nm) with a suitable measuring instrument (Pherastar, BMG). […] The data were normalized (transfected cells+coumberon=0% inhibition; no cells+coumberone=100% inhibition). Substances were usually tested at 11 different concentrations on the same microtiter plate in a range between 96.8 pM to 20 μM (20 μM, 5.9 μM, 1.7 μM, 0.5 μM, 0.15 μM, 44 nM, 12.9 nM, 3.8 nM, 1.1 nM, 0.3 nM and 96.8 pM). The dilutions were carried out on a 100 fold concentrated solution by serial dilution in duplicates. From the obtained data IC50 values were calculated by a 4-parameter fit.

| SMILES | IC50 (AKR1C3 [1]) [nM] | IC50 (AKR1C3 [2]) [nM] |
| --- | --- | --- |
| Cc1cc(C2=CC[C@H]3[C@@H]4CCc5cc(S(=O)(=O)N(C)CCC(=O)O)ccc5[C@H]4CC[C@]23C)cnn1 [Example 07, N-methyl-N-{[17-(6-methylpyridazin-4-yl)estra-1(10),2,4,16-tetraen-3-yl]sulfonyl}-beta-alanine] | 0.5 | 800 |
| CN(C(=O)CCC(=O)O)c1ccc2c(c1)CC[C@@H]1[C@@H]2CC[C@]2(C)C(c3cncc(F)c3)=CC[C@@H]12 [Example 35, 4-{[17-(5-fluoropyridin-3-yl)estra-1(10),2,4,16-tetraen-3-yl](methyl)amino}-4-oxobutanoic acid] | 3.2 | 210 |
| C[C@]12CC[C@@H]3c4ccc(S(=O)(=O)CCCCO)cc4CC[C@H]3[C@@H]1CC=C2c1cncc(F)c1 [Example 21, 4-{[17-(5-fluoropyridin-3-yl)estra-1(10),2,4,16-tetraen-3-yl]sulfonyl}butan-1-ol] | 5.3 | 40 |
| Cc1cc(C2=CC[C@H]3[C@@H]4CCc5cc(NC(=O)CCC(=O)O)ccc5[C@H]4CC[C@]23C)cnn1 [Example 45, 4-{[17-(6-methylpyridazin-4-yl)estra-1(10),2,4,16-tetraen-3-yl]amino}-4-oxobutanoic acid] | 1.8 | 980 |
| C[C@]12CC[C@@H]3c4ccc(S(=O)(=O)CCCC(=O)O)cc4CC[C@H]3[C@@H]1CC=C2c1cncc(C(F)(F)F)c1 [Example 14, 4-({17-[5-(trifluoromethyl)pyridin-3-yl]estra-1(10),2,4,16-tetraen-3-yl}sulfonyl)butanoic acid] | 14.3 | 490 |
| CC(=O)NS(=O)(=O)CCC(=O)Nc1ccc2c(c1)CC[C@@H]1[C@@H]2CC[C@]2(C)C(c3cncc(F)c3)=CC[C@@H]12 [Example 29, 3-(acetylsulfamoyl)-N-[17-(5-fluoropyridin-3-yl)estra-1(10),2,4,16-tetraen-3-yl]propanamide] | 3.2 | 5000 |
| CN(CCC(=O)O)S(=O)(=O)c1ccc2c(c1)CC[C@@H]1[C@@H]2CC[C@]2(C)C(c3cncc(F)c3)=CC[C@@H]12 [Example 02, N-{[17-(5-fluoropyridin-3-yl)estra-1(10),2,4,16-tetraen-3-yl]sulfonyl}-N-methyl-beta-alanine] | 3.5 | 380 |
| C[C@]12CC[C@@H]3c4ccc(S(=O)(=O)CCCC(=O)O)cc4CC[C@H]3[C@@H]1CC=C2c1cncc(Cl)c1 [Example 19, 4-{[17-(5-chloropyridin-3-yl)estra-1,3,5(10),16-tetraen-3-yl]sulfonyl}butanoic acid] | 1.7 | 150 |
| CC(=O)NS(=O)(=O)CCC(=O)N(C)c1ccc2c(c1)CC[C@@H]1[C@@H]2CC[C@]2(C)C(c3cncc(F)c3)=CC[C@@H]12 [Example 31, 3-(acetylsulfamoyl)-N-[17-(5-fluoropyridin-3-yl)estra-1(10),2,4,16-tetraen-3-yl]-N-methylpropanamide] | 4.1 | 1540 |
| C[C@]12CC[C@@H]3c4ccc(NC(=O)NCCC(=O)O)cc4CC[C@H]3[C@@H]1CC=C2c1cncc(F)c1 [Example 42, N-{[17-(5-fluoropyridin-3-yl)estra-1(10),2,4,16-tetraen-3-yl]carbamoyl}-beta-alanine] | 8.3 | 8090 |
| Cc1ccncc1C1=CC[C@H]2[C@@H]3CCc4cc(S(=O)(=O)CCCC(=O)O)ccc4[C@H]3CC[C@]12C [Example 18, 4-{[17-(4-methylpyridin-3-yl)estra-1,3,5(10),16-tetraen-3-yl]sulfonyl}butanoic acid] | 33.5 | 1790 |
| C[C@]12CC[C@@H]3c4ccc(NC(=O)CCC(N)=O)cc4CC[C@H]3[C@@H]1CC=C2c1cncc(F)c1 [Example 26, N-[17-(5-fluoropyridin-3-yl)estra-1(10),2,4,16-tetraen-3-yl]butanediamide] | 8.6 | 150 |
| C[C@]12CC[C@@H]3c4ccc(S(=O)(=O)CCCC(=O)O)cc4CC[C@H]3[C@@H]1CC=C2c1cncc(F)c1 [Example 10, 4-{[17-(5-fluoropyridin-3-yl)estra-1(10),2,4,16-tetraen-3-yl]sulfonyl}butanoic acid] | 2.9 | 490 |
| C[C@]12CC[C@@H]3c4ccc(S(=O)(=O)CCCC(=O)O)cc4CC[C@H]3[C@@H]1CC=C2c1cccnc1 [Example 12, 4-{[17-(pyridin-3-yl)estra-1(10),2,4,16-tetraen-3-yl]sulfonyl}butanoic acid] | 12 | 700 |
| CN(c1ccc2c(c1)CC[C@@H]1[C@@H]2CC[C@]2(C)C(c3cncc(F)c3)=CC[C@@H]12)S(=O)(=O)CCC(=O)O [Example 38, 3-{[17-(5-fluoropyridin-3-yl)estra-1(10),2,4,16-tetraen-3-yl](methyl)sulfamoyl}propanoic acid] | 4.9 | 860 |
| CN(CCC(=O)O)S(=O)(=O)c1ccc2c(c1)CC[C@@H]1[C@@H]2CC[C@]2(C)C(c3cncnc3)=CC[C@@H]12 [Example 05, N-methyl-N-{[17-(pyrimidin-5-yl)estra-1(10),2,4,16-tetraen-3-yl]sulfonyl}-beta-alanine] | 91.7 | 2710 |
| C[C@]12CC[C@@H]3c4ccc(NS(=O)(=O)CCC(=O)O)cc4CC[C@H]3[C@@H]1CC=C2c1cncc(F)c1 [Example 39, 3-{[17-(5-fluoropyridin-3-yl)estra-1(10),2,4,16-tetraen-3-yl]sulfamoyl}propanoic acid] | 3 | 5100 |
